# Assay results as given in PubChem BioAssay AID330 (DTP/NCI, 2004).
# Values joined by “and” are separate entries in the source; they are usually repeats but may differ in a detail not shown here. Identical values can stand only once. Inconclusive results and toxic doses are left out.
# Test system: P388 leukemia ip, CD2F1 mice, survival T/C
# Test: NCI In Vivo Anticancer Drug Screen. Data for tumor model P388 Leukemia (intraperitoneal) in CD2F1 (CDF1) mice
# Conditions: endpoint: median survival time, higher = longer survival
# How it was run: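 Mice carrying the transplanted tumor received test compound or vehicle. Survival was recorded in each group, and the value is the treated-group measurement divided by that of the vehicle-treated control group.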
# [1] = dose: 60.0 mg/kg/injection, schedule: Q01DX005 (ip), vehicle: saline with Tween-80
# [2] = dose: 120.0 mg/kg/injection, schedule: Q01DX005 (ip), vehicle: saline with Tween-80
# [3] = dose: 240.0 mg/kg/injection, schedule: Q01DX005 (ip), vehicle: saline with Tween-80
# [4] = dose: 50.0 mg/kg/injection, schedule: Q01DX009 (ip), vehicle: saline with Tween-80
# [5] = dose: 100.0 mg/kg/injection, schedule: Q01DX009 (ip), vehicle: saline with Tween-80
# [6] = dose: 200.0 mg/kg/injection, schedule: Q01DX009 (ip), vehicle: saline with Tween-80
# [7] = dose: 100.0 mg/kg/injection, schedule: Q01DX001 (ip), vehicle: saline with Tween-80
# [8] = dose: 200.0 mg/kg/injection, schedule: Q01DX001 (ip), vehicle: saline with Tween-80
# [9] = dose: 400.0 mg/kg/injection, schedule: Q01DX001 (ip), vehicle: saline with Tween-80
# [10] = dose: 50.0 mg/kg/injection, schedule: Q01DX005 (ip), vehicle: saline with Tween-80
# [11] = dose: 100.0 mg/kg/injection, schedule: Q01DX005 (ip), vehicle: saline with Tween-80
# [12] = dose: 200.0 mg/kg/injection, schedule: Q01DX005 (ip), vehicle: saline with Tween-80
# [13] = dose: 50.0 mg/kg/injection, schedule: Q01DX005 (ip), vehicle: Klucel (hydroxypropylcellulose) (HPC)
# [14] = dose: 100.0 mg/kg/injection, schedule: Q01DX005 (ip), vehicle: Klucel (hydroxypropylcellulose) (HPC)
# [15] = dose: 200.0 mg/kg/injection, schedule: Q01DX005 (ip), vehicle: Klucel (hydroxypropylcellulose) (HPC)
# [16] = dose: 50.0 mg/kg/injection, schedule: Q01DX009 (ip), vehicle: Klucel (hydroxypropylcellulose) (HPC)
# [17] = dose: 100.0 mg/kg/injection, schedule: Q01DX009 (ip), vehicle: Klucel (hydroxypropylcellulose) (HPC)
# [18] = dose: 100.0 mg/kg/injection, schedule: Q01DX001 (ip), vehicle: saline
# [19] = dose: 200.0 mg/kg/injection, schedule: Q01DX001 (ip), vehicle: saline
# [20] = dose: 400.0 mg/kg/injection, schedule: Q01DX001 (ip), vehicle: saline
structure (smiles),measurement,setting,value
COc1ccc(-c2nc3ccccc3[nH]2)cc1,T/C,"dose: 50.0 mg/kg/injection, schedule: Q04DX003 (ip), vehicle: saline with Tween-80",103 % of control
same,T/C,"dose: 100.0 mg/kg/injection, schedule: Q04DX003 (ip), vehicle: saline with Tween-80",106 % of control
same,T/C,"dose: 200.0 mg/kg/injection, schedule: Q04DX003 (ip), vehicle: saline with Tween-80",102 % of control
same,T/C,"dose: 400.0 mg/kg/injection, schedule: Q04DX003 (ip), vehicle: saline with Tween-80",120 % of control
CC(C)CC(NC(=O)CF)C(=O)O (stereo not drawn),T/C,"dose: 1.25 mg/kg/injection, schedule: Q01DX009 (ip), vehicle: saline with Tween-80",96 % of control
same,T/C,"dose: 2.5 mg/kg/injection, schedule: Q01DX009 (ip), vehicle: saline with Tween-80",109 % of control
same,T/C,"dose: 5.0 mg/kg/injection, schedule: Q01DX009 (ip), vehicle: saline with Tween-80",124 % of control
COc1ccc(C2C3=C(CCCC3=O)OC3=C2C(=O)CCC3)cc1,T/C,[1],96 % of control
same,T/C,[2],99 % of control
same,T/C,[3],100 % of control
O=C1CCCCC(=O)CS(=O)(=O)C1,T/C,[4],110 % of control
same,T/C,[5],107 % of control
same,T/C,[6],103 % of control
COC(=O)C1c2ccc(OC)c(OC)c2C(=O)N2CCc3cc4c(cc3C12)OCO4 (stereo not drawn),T/C,"dose: 50.0 mg/kg/injection, schedule: Q04DX003 (ip), vehicle: distilled water + Tween-80",95 % of control
same,T/C,"dose: 100.0 mg/kg/injection, schedule: Q04DX003 (ip), vehicle: distilled water + Tween-80",101 % of control
same,T/C,"dose: 200.0 mg/kg/injection, schedule: Q04DX003 (ip), vehicle: distilled water + Tween-80",95 % of control
same,T/C,"dose: 400.0 mg/kg/injection, schedule: Q04DX003 (ip), vehicle: distilled water + Tween-80",104 % of control
CSC(=S)n1nc(-c2ccccc2)c(N=Nc2cccc(Cl)c2Cl)c1-c1ccccc1,T/C,[7],87 % of control
same,T/C,[8],87 % of control
same,T/C,[9],97 % of control
Cc1cccc(C)c1NC(=O)C(=O)/C(=C(\N)c1ccccc1)c1ccccc1,T/C,[10],101 % of control
same,T/C,[11],94 % of control
same,T/C,[12],90 % of control
NS(=O)(=O)c1cccnc1Nc1ccc([N+](=O)[O-])cc1,T/C,"dose: 50.0 mg/kg/injection, schedule: Q01DX009 (ip), vehicle: saline",105 % of control
same,T/C,"dose: 100.0 mg/kg/injection, schedule: Q01DX009 (ip), vehicle: saline",101 % of control
same,T/C,"dose: 200.0 mg/kg/injection, schedule: Q01DX009 (ip), vehicle: saline",93 % of control
Cc1ncc(Br)c(C(=O)N=C(N)N)n1,T/C,[13],95 % of control
same,T/C,[14],100 % of control
same,T/C,[15],94 % of control
CCOc1c(N=Nc2ccccc2OC)c(C)nn1C(=S)S,T/C,"dose: 60.0 mg/kg/injection, schedule: Q01DX005 (ip), vehicle: Klucel (hydroxypropylcellulose) (HPC)",102 % of control
same,T/C,"dose: 120.0 mg/kg/injection, schedule: Q01DX005 (ip), vehicle: Klucel (hydroxypropylcellulose) (HPC)",114 % of control
same,T/C,"dose: 240.0 mg/kg/injection, schedule: Q01DX005 (ip), vehicle: Klucel (hydroxypropylcellulose) (HPC)",105 % of control
O=C(Nc1ccc(Cl)cc1)OCCSc1nc2ccccc2s1,T/C,[4],102 % of control
same,T/C,[5],105 % of control
same,T/C,[6],93 % of control
CN(C)C1C(=O)C(C(=O)NCNC2C(=O)N3C2SC(C)(C)C3C(=O)O)=C(O)C2(O)C(=O)C3=C(O)c4c(O)cccc4C(C)(O)C3CC12 (stereo not drawn),T/C,[10],100 % of control
same,T/C,[11],104 % of control
same,T/C,[12],90 % of control
O=C(O)CC(O)CCCCCO (stereo not drawn),T/C,[4],110 % of control
same,T/C,[5],110 % of control
same,T/C,"dose: 100.0 mg/kg/injection, schedule: Q04DX003 (ip), vehicle: saline",106 % of control
same,T/C,[6],100 % of control
same,T/C,"dose: 200.0 mg/kg/injection, schedule: Q04DX003 (ip), vehicle: saline",113 % of control
same,T/C,"dose: 400.0 mg/kg/injection, schedule: Q04DX003 (ip), vehicle: saline",100 % of control
CCC1(c2ccccc2)OCC(C2CCCCN2)O1 (stereo not drawn),T/C,[16],95 % of control
same,T/C,[17],95 % of control
C=C(CO)C(=O)OC1CC(=C)C2CC(O)C(=C)C2C2OC(=O)C(=C)C12 (stereo not drawn),T/C,[18],113 % of control
same,T/C,[19],99 % of control
same,T/C,[20],104 % of control
O=C(O)c1c[nH]c2cc(-n3cccc3)ccc2c1=O,T/C,"dose: 15.0 mg/kg/injection, schedule: Q01DX005 (ip), vehicle: saline with Tween-80",102 % of control
same,T/C,"dose: 30.0 mg/kg/injection, schedule: Q01DX005 (ip), vehicle: saline with Tween-80",101 % of control
same,T/C,[1],102 % of control and 88 % of control
COCC1(C)CCCC2(C)C1CCC13CCC(OC)CC12O3 (stereo not drawn),T/C,[18],115 % of control
same,T/C,[19],106 % of control
same,T/C,[20],94 % of control
COc1cc(C2c3cc4c(cc3C(=O)C(C)C2C)OCO4)ccc1O (stereo not drawn),T/C,"dose: 25.0 mg/kg/injection, schedule: Q01DX005 (ip), vehicle: Klucel (hydroxypropylcellulose) (HPC)",98 % of control
same,T/C,[13],98 % of control
same,T/C,[14],102 % of control
same,T/C,"dose: 150.0 mg/kg/injection, schedule: Q01DX005 (ip), vehicle: Klucel (hydroxypropylcellulose) (HPC)",86 % of control
CC(=O)Nc1ccc(C(=O)CN(Cc2ccccc2)Cc2ccccc2)cc1,T/C,[13],87 % of control
same,T/C,[14],87 % of control
O=C1OC(c2ccccc2)c2cccnc21 (stereo not drawn),T/C,"dose: 100.0 mg/kg/injection, schedule: Q04DX002 (ip), vehicle: saline with Tween-80",101 % of control
same,T/C,"dose: 200.0 mg/kg/injection, schedule: Q04DX002 (ip), vehicle: saline with Tween-80",92 % of control
same,T/C,"dose: 400.0 mg/kg/injection, schedule: Q04DX002 (ip), vehicle: saline with Tween-80",98 % of control
O=C1c2ccccc2C(=O)c2c(NCC3CCCN4CCCCC34)cccc21 (stereo not drawn),T/C,[13],100 % of control
same,T/C,[14],98 % of control
same,T/C,[15],100 % of control
NC(=S)N/N=C/C=C/c1ccccc1,T/C,"dose: 25.0 mg/kg/injection, schedule: Q04DX002 (ip), vehicle: Klucel (hydroxypropylcellulose) (HPC)",96 % of control
same,T/C,"dose: 50.0 mg/kg/injection, schedule: Q04DX002 (ip), vehicle: Klucel (hydroxypropylcellulose) (HPC)",105 % of control
same,T/C,"dose: 100.0 mg/kg/injection, schedule: Q04DX002 (ip), vehicle: Klucel (hydroxypropylcellulose) (HPC)",101 % of control
NC(=O)c1[nH]cnc1NN=NCCF,T/C,"dose: 0.39 mg/kg/injection, schedule: Q01DX009 (ip), vehicle: distilled water + Tween-80",116 % of control and 122 % of control
same,T/C,"dose: 0.78 mg/kg/injection, schedule: Q01DX009 (ip), vehicle: distilled water + Tween-80",116 % of control
same,T/C,"dose: 1.56 mg/kg/injection, schedule: Q01DX009 (ip), vehicle: distilled water + Tween-80",150 % of control
same,T/C,"dose: 3.13 mg/kg/injection, schedule: Q01DX009 (ip), vehicle: distilled water + Tween-80",179 % of control
same,T/C,"dose: 6.25 mg/kg/injection, schedule: Q01DX009 (ip), vehicle: distilled water + Tween-80",175 % of control
S=C1NC2(CCCCC2)NC12CCCCC2,T/C,[16],86 % of control
same,T/C,[17],93 % of control
same,T/C,"dose: 200.0 mg/kg/injection, schedule: Q01DX009 (ip), vehicle: Klucel (hydroxypropylcellulose) (HPC)",98 % of control
same,T/C,"dose: 400.0 mg/kg/injection, schedule: Q01DX009 (ip), vehicle: Klucel (hydroxypropylcellulose) (HPC)",93 % of control
Oc1cc(O)c(Br)c(O)c1,T/C,"dose: 7.5 mg/kg/injection, schedule: Q01DX005 (ip), vehicle: saline",108 % of control
same,T/C,"dose: 15.0 mg/kg/injection, schedule: Q01DX005 (ip), vehicle: saline",111 % of control
same,T/C,"dose: 30.0 mg/kg/injection, schedule: Q01DX005 (ip), vehicle: saline",105 % of control
N#COc1ccc(-c2ccccc2)cc1,T/C,[1],90 % of control
same,T/C,[2],87 % of control
same,T/C,[3],86 % of control and 90 % of control
O=C(O)c1cc(=O)n(CCCCCCn2c(=O)cc(C(=O)O)[nH]c2=O)c(=O)[nH]1,T/C,[4],98 % of control
same,T/C,[5],104 % of control
same,T/C,[6],111 % of control
CCOC(=O)N1CCN(C(=S)NNC(C)c2cccc[n+]2[O-])CC1 (stereo not drawn),T/C,[10],99 % of control
same,T/C,[11],100 % of control
O=C(O)c1cccc(C(=O)O)c1Sc1c(C(=O)O)cccc1C(=O)O,T/C,[7],99 % of control
same,T/C,[8],95 % of control
same,T/C,[9],91 % of control
